Assay results reported in US8901072B2, “Glycopeptide and lipoglycopeptide antibiotics with improved solubility” (The Medicines Company, priority 2009, dated 2014).
Values after ≈ are worked out from the molar mass of the structure shown.

Key:
[1] = Solubility in phosphate buffered saline; assay type: physicochemical; settings: 10 mM phosphate buffered saline (0.138 M NaCl, 2.7 mM KCl), pH 7.4
Method: To a sample of the material of known mass were added known volumes of phosphate buffered saline until complete dissolution is observed. Suspensions were centrifuged for 5 min at 10000 rpm. […] Upon complete dissolution, the solution is diluted until the final concentration is 0.5 mg/mL to ensure that the material remains soluble over the entire range of concentrations.

S. aureus ATCC 13709 = test: In vitro antibacterial susceptibility (MIC, broth microdilution); assay type: cell-based; settings: for MIC against S. aureus ATCC 13709, CAMHB: cation-adjusted Mueller-Hinton broth, 37° C., 18 h; for Antibacterial activity compared with oritavancin 5: deduced from the MIC data of Table 2
Method: Susceptibility of S. aureus strain ATCC13709 to oritavancin (5) and synthesized compounds was determined following the guidelines set by the Clinical and Laboratory Standards Institute (formerly the National Committee for Clinical Laboratory Standards) (M26-A). Compounds were serially diluted two-fold in either DMSO (Oritavancin 5) or in PBS and transferred to cation-adjusted Mueller Hinton broth (CAMHB; Becton Dickinson). 50 μL of compounds diluted in CAMHB was mixed with 100 μL of bacteria diluted in CAMHB in 96-well microtiter plates. The final number of micro-organisms in the assay was 5×10^5 c.f.u. per mL and the final concentration of DMSO in the assay, if present, was 1.25%. All solutions may contain 0.002% Tween as indicated. Assays were set up in duplicate and incubated at 37° C. for 18 h. The concentration of compound that inhibited visible growth was reported as the minimum inhibitory concentration (MIC).

[2] = test system: S. aureus strain ATCC13709; test: Neutropenic mouse thigh infection model; assay type: in vivo, mice; settings: neutropenic mice, 24 h postinfection
Method: The susceptibility of S. aureus strain ATCC13709 to oritavancin (5) and selected synthesized compounds in vivo was evaluated with the well accepted neutropenic mouse thigh infection model (Craig, W. A. et al. Journal of Antimicrobial Chemotherapy (1991), 27 (Suppl. C):29-40). Mice were made neutropenic by treatment with cyclophosphamide (150 and 100 mg/kg of body weight administered intraperitoneally 4 days and 1 day prior to infection). Mice were anesthetized briefly with approximately 4% isoflurane just prior to inoculation. The bacterial suspension (0.1 mL) was injected intramuscularly into each thigh (approximately 10^5 colony forming units (CFU)/thigh). The selected agents were administered in 10% (w/w) β-hydroxypropylcyclodextrin in water at a concentration of 10 mg/mL one hour following bacterial inoculation. The animals were humanely sacrificed by CO2 asphyxiation 24 h postinfection. The entire thigh muscle mass including the bone was homogenized and diluted in 0.9% saline and aliquots were plated on Brain-Heart Infusion agar. Following overnight incubation at 37° C., bacteria were enumerated for each thigh and expressed as log10 CFU per thigh. This was performed over three independent experiments and oritavancin (5) was used as a comparator in each.

Compound | Solubility (mg/mL) PBS [1] | MIC against S. aureus ATCC 13709, CAMHB + 0.002% tween (S. aureus ATCC 13709) [µg/mL] | MIC against S. aureus ATCC 13709, CAMHB + 50% human serum (S. aureus ATCC 13709) [µg/mL] | MIC against S. aureus ATCC 13709, CAMHB + 50% mouse serum (S. aureus ATCC 13709) [µg/mL] | MIC against S. aureus ATCC 13709, CAMHB (S. aureus ATCC 13709) [µg/mL] | Antibacterial activity compared with oritavancin 5 (S. aureus ATCC 13709) | Recovered bacterial titers per thigh, 1 mg/kg ([2]; 1 mg/kg one hour after inoculation) [Log10 CFU/thigh] | Recovered bacterial titers per thigh, 10 mg/kg ([2]; 10 mg/kg one hour after inoculation) [Log10 CFU/thigh] | Recovered bacterial titers per thigh, 40 mg/kg ([2]; 40 mg/kg one hour after inoculation) [Log10 CFU/thigh] | MIC against S. aureus ATCC 13709, CAMHB + 50% rat serum (S. aureus ATCC 13709; CAMHB + 50% rat serum) [µg/mL]
CC(C)CC(C(=O)NC1C(=O)NC(CC(N)=O)C(=O)NC2C(=O)NC3C(=O)NC(C(=O)NC(C(=O)O)c4cc(O)cc(O)c4-c4cc3ccc4O)C(OC3CC(C)(N)C(O)C(C)O3)c3ccc(c(Cl)c3)Oc3cc2cc(c3OC2OC(CO)C(O)C(O)C2OC2CC(C)(NCc3ccc(-c4ccc(Cl)cc4)cc3)C(O)C(C)O2)Oc2ccc(cc2Cl)C1O)N(C)C(=O)OCOC(=O)CCC(=O)NC(CCC(=O)O)(CCC(=O)O)CCC(=O)O (stereo not shown) [Compound 78] | 4 mg/mL (≈ 1820 µM) | 1 | 16 | 32 | 8 (≈ 3.64 µM) | weaker activities |  |  |  | 
CC(C)CC(C(=O)NC1C(=O)NC(CC(N)=O)C(=O)NC2C(=O)NC3C(=O)NC(C(=O)NC(C(=O)O)c4cc(O)cc(O)c4-c4cc3ccc4O)C(OC3CC(C)(N)C(O)C(C)O3)c3ccc(c(Cl)c3)Oc3cc2cc(c3OC2OC(CO)C(O)C(O)C2OC2CC(C)(NCc3ccc(-c4ccc(Cl)cc4)cc3)C(O)C(C)O2)Oc2ccc(cc2Cl)C1O)N(C)C(=O)OCOC(=O)CCP(=O)(O)O (stereo not shown) [Compound 84] | 0.5 to 1 mg/mL | 0.125 | 0.5 | 2 | 1 (≈ 0.499 µM) | within an order of magnitude of that of oritavancin 5 |  |  |  | 
CNC(CC(C)C)C(=O)NC1C(=O)NC(CC(N)=O)C(=O)NC2C(=O)NC3C(=O)NC(C(=O)NC(C(=O)OCC(=O)NCCN)c4cc(O)cc(O)c4-c4cc3ccc4O)C(OC3CC(C)(N)C(O)C(C)O3)c3ccc(c(Cl)c3)Oc3cc2cc(c3OC2OC(CO)C(O)C(O)C2OC2CC(C)(NCc3ccc(-c4ccc(Cl)cc4)cc3)C(O)C(C)O2)Oc2ccc(cc2Cl)C1O (stereo not shown) [Compound 90a] | ≧100 mg/mL | 0.5 | 0.25 | 0.5 | 1 (≈ 0.528 µM) | within an order of magnitude of that of oritavancin 5 | 8.38 ± 0.23 | 6.13 ± 2.53 | 5.27 ± 2.66 | 
CNC(CC(C)C)C(=O)NC1C(=O)NC(CC(N)=O)C(=O)NC2C(=O)NC3C(=O)NC(C(=O)NC(C(=O)OCC(=O)NCCCCN)c4cc(O)cc(O)c4-c4cc3ccc4O)C(OC3CC(C)(N)C(O)C(C)O3)c3ccc(c(Cl)c3)Oc3cc2cc(c3OC2OC(CO)C(O)C(O)C2OC2CC(C)(NCc3ccc(-c4ccc(Cl)cc4)cc3)C(O)C(C)O2)Oc2ccc(cc2Cl)C1O (stereo not shown) [Compound 90c] | <1.6 mg/mL | 0.25 | 0.125 | 0.5 | 1 (≈ 0.52 µM) | within an order of magnitude of that of oritavancin 5 |  |  |  | 
CNC(CC(C)C)C(=O)NC1C(=O)NC(CC(N)=O)C(=O)NC2C(=O)NC3C(=O)NC(C(=O)NC(C(=O)OCC(=O)N(C)CCN(C)C)c4cc(O)cc(O)c4-c4cc3ccc4O)C(OC3CC(C)(N)C(O)C(C)O3)c3ccc(c(Cl)c3)Oc3cc2cc(c3OC2OC(CO)C(O)C(O)C2OC2CC(C)(NCc3ccc(-c4ccc(Cl)cc4)cc3)C(O)C(C)O2)Oc2ccc(cc2Cl)C1O (stereo not shown) [Compound 103] | ≧100 mg/mL | 0.25 | 0.25 | 0.5 | 2 (≈ 1.03 µM) | within an order of magnitude of that of oritavancin 5 |  |  |  | 0.125
